In one series the test system is serum albumin. The series is described as follows: binding assay with serum albumin (ultrafiltration of pooled plasma). The format is in vitro ADME, rat. Particulars: pooled plasma of EHBRs, filtrate undetectable by LC-MS/MS. The procedure:
In total 100 µl of pooled plasma samples from female EHBRs described above were ultra-centrifugated using Centricut W-20 (Molecular weight cut off 2 × 10^4, Kurabo Industries Ltd., Osaka, Japan) according to the manufacturer’s instruction, and the concentration of compound 1 in the filtrate was measured by using LC-MS/MS described in uptake study section.

Another series has as its target T1, rat 11β-HSD2 (Rattus norvegicus, UniProt P50233).
T1 construct: kidney microsome fractions were obtained from male Wistar rats (7-week-old); from tissue; host or cells: rat kidney microsome fraction (male Wistar rats)
T1 sequence (P50233 1-400): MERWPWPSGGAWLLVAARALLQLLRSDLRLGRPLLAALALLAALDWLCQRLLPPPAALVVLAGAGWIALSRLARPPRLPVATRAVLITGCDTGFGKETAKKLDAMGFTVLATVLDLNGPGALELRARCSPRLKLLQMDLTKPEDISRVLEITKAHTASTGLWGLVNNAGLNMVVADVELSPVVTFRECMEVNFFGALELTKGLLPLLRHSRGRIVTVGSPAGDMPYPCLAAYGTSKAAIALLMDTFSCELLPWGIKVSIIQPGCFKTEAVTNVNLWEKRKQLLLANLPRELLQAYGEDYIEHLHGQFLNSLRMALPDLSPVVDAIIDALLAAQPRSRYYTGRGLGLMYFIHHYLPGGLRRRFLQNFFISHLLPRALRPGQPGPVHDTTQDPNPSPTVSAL
Description: in vitro 11β-HSD2 activity using rat kidney microsomes. The format is biochemical. The procedure: Assays were conducted as described by Diederich et al.[23] with slight modifications as described in our previous study. Briefly, kidney microsome fractions were obtained from male Wistar rats (7-week-old). The microsome fraction (1.0 mg protein) was then incubated at 37 °C for 30 min in a reaction mixture containing 50 nM [1,2,6,7-^3H] cortisol, 1 mM NAD^+, and samples in […] 0.1 M phosphate buffer (pH 6.0). The reaction was terminated by adding 250 µl EtOH containing 1.25 mg cortisol and 1.25 mg cortisone. A 10 µl aliquot of the solution was spotted onto a silica gel 60 F254 plate and was developed with chloroform:MeOH (9:1). Spots corresponding to cortisone (Rf value, 0.43) were detected under UV light, scraped into a scintillation vial containing Clear-sol®, and the radioactivity was measured using a liquid scintillation counter (Hitachi Aloka Medical, Tokyo, Japan). The IC50 was calculated from the least square regression line made from 3 points that crossed 50% of the control logarithmic concentration values.

A further series deals with T2, OAT3 (Homo sapiens, UniProt Q8TCC7).
T2 construct: expressed in transfected cells
T2 sequence (Q8TCC7 1-542): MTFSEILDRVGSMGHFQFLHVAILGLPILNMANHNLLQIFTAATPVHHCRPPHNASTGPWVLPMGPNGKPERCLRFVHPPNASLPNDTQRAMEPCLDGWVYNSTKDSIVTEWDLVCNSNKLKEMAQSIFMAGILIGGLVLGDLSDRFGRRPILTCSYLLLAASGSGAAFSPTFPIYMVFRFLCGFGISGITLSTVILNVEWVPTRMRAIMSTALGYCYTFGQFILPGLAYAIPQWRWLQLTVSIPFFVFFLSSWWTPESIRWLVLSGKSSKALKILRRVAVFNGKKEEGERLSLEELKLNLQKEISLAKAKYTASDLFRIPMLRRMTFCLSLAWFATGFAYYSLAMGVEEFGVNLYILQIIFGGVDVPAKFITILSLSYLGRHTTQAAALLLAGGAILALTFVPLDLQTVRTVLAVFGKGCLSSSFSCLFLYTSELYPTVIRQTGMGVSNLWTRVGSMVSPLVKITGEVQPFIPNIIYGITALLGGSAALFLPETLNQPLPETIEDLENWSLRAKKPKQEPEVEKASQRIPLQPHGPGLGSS
Description: uptake by MDCK II cells stably expressing OAT3. Conditions: pooled plasma of male EHBRs (79 µM compound 1), pH 5.5, 37 °C, 15 min. The format is in vitro ADME. As to the method: MDCKII cells were cultured in Dulbecco’s modified Eagle’s medium containing 10% FBS, 100 U/ml penicillin, and 100 µg/ml streptomycin at 37 °C in 5% CO2. Plasmids carrying the cDNAs encoding human organic anion transporter (OAT) 1 and 3 were prepared using the pCI-neo mammalian expression vector, as described previously. Using the plasmids, MDCKII cells stably expressing OAT1 and 3 were prepared as described previously, and tested for their functional expressions by evaluating the transports of [^3H]p-aminohippurate and [^3H]estrone sulfate, respectively, as probe substrates.
For the transport assay, the cells were seeded in 24-well plates (1 × 10^5 cells/well), and incubated for 24 h. The cells were pre-incubated for 15 min at 37 °C with 0.25 ml of the incubation medium described above. Two ml of pooled female or male EHBR plasma samples was lyophilized, and dissolved in 2 ml of 10 mM MES (pH 5.5). The cells were then incubated further at 37 °C for 15 min with 0.1 ml of pooled female or male EHBR plasma samples. The surface of the cells was washed 3 times with 0.5 ml of ice-cold PBS, and then the contents were extracted with 0.2 ml of ethanol. The cell residues were dissolved by 0.1 ml of 1 M NaOH, and after neutralization by adding 0.1 ml of 1 M HCl, the concentrations of protein were measured as mentioned above.

The nature of series [1]: pharmacokinetics in EHBRs orally treated with GA (200 mg/kg), LC-MS/MS. In kind it is in vivo, Eisai Hyperbilirubinemia rats (EHBRs). The procedure:
(§1) Female SD rats or EHBRs (9-week-old) were anesthetized by an intraperitoneal (i.p.) injection of urethane (1 g/kg) and their jugular veins were exposed. […] Aliquots (10 µl) of plasma or urine were mixed with 20 µl of subtilisin (0.91 U/ml), incubated at 37 °C for 30 min, followed by the addition of 70 µl of astragalloside IV solution (1 µg/ml in ethanol containing 0.5% formic acid), and kept at −20 °C for 30 min.

Series [2] can be described thus: pharmacokinetics in SD rats orally treated with GA (200 mg/kg), LC-MS/MS. In kind it is in vivo, Sprague Dawley (SD) rats. Conditions: female SD rats, GA 200 mg/kg oral, over 12 h. The procedure:
as §1

The IC50 is the point on the concentration scale where inhibition reaches its midpoint. High values mean weaker potency in that assay, low ones greater potency in that assay. `CC1(C(=O)OC2OC(C(=O)O)C(O)C(O)C2O)CC(O)C2(C)CCC3(C)C(=CC(=O)C4C5(C)CCC(OS(=O)(=O)O)C(C)(C)C5CCC43C)C2C1` (stereo not drawn) [Compound 1, 22α-hydroxy-18β-glycyrrhetyl-3-O-sulfate-30-glucuronide]: the “albumin-binding ratio in plasma” value in the series with serum albumin is recorded as “more than 99.9%”. In addition, the “potency on 11β-HSD2, times lower than that of 3MGA and GA” value on rat 11β-HSD2 (IC50 of compound 1 compared with 3MGA and GA) is “about 10 times”. On rat 11β-HSD2 (kidney microsomes of male Wistar rats, 37 °C, 30 min), this compound came in with an IC50 of 2000 nM. In addition, the “uptake by cells expressing OAT3 compared with mock cells” value at OAT3 is on record as “higher than that by mock cells”. The “plasma concentration, times higher than that of 3MGA” value in series [1] (EHBRs orally treated with GA) was “about 10 times”. In addition, the concentration at 12 h in series [1] (Eisai Hyperbilirubinemia rats (EHBR), rat, plasma, female EHBRs, GA 200 mg/kg oral, 12 h, read-out: plasma concentration 12 h after GA treatment) amounted to 5.3 µM. In addition, the “urinary elimination in EHBRs” value in series [1] (female EHBRs, GA 200 mg/kg oral, over 12 h) is recorded as “eliminated via urine”. Also, in series [2], the “detection in plasma of SD rats” value is reported as “not detected” and the “urinary elimination in SD rats” value is on record as “not detected”.

For the origin of these results see PMC6197257 (Scientific Reports, 2018).
